# Assay results from patent publication US9139581B2 (PORTOLA PHARMACEUTICALS, INC., priority 2008, dated 2015).
# Like-named read-outs stand apart in the source and are kept apart here.
# Biological target: T1, full length active recombinant SYK enzyme (Homo sapiens, UniProt P43405)
# T1 construct: full length active recombinant SYK enzyme (Millipore, Calif.); purchased Millipore
# Experiment: Inhibition of Syk tyrosine phosphorylation activity (LANCE TR-FRET)
# Assay type: biochemical
# Details: 1 nM SYK, 100 μM ATP
# Protocol: The in vitro and in vivo human syk activities of the inventive compounds can be determined by various procedures known in the art, such as a test for their ability to inhibit the activity of human plasma syk. […] Inhibition of Syk Tyrosine Phosphorylation Activity Potency of candidate molecules for inhibiting syk tyrosine phosphorylation activity is assessed by measuring the ability of a test compound to inhibit syk-mediated tyrosine phosphorylation of a syk-specific substrate. SYK tyrosine phosphorylation activity is measured using the LANCETM Technology developed by Perkin Elmer Life and Analytical Sciences (Boston, Mass.). LANCETM refers to homogeneous time resolved fluorometry applications using techniques such as time-resolved fluorescence resonance energy transfer assay (TR-FRET) (see generally for procedures in Perkin Elmer Application Note-How to Optimize a Tyrosine Kinase Assay Using Time Resolved Fluorescence-Based LANCE Detection, wwww.perkinelmer.com/lifesciences). The assay principle involves detection of a phosphorylated substrate using energy transfer from a phosphospecific europium-labeled antibody to streptavidin-allophycocyanin as an acceptor. To test the ability of candidate molecules to inhibit SYK tyrosine phosphorylation activity, molecules are reconstituted in 30% DMSO and serially diluted 1:3 with the final dilution containing DMSO in the absence of the candidate molecule. The final DMSO concentration in the assay is 3%. Kinase assays are performed as a two part reaction. The first reaction is a kinase reaction and which comprises of a candidate molecule, full length active recombinant SYK enzyme (Millipore, Calif.) and biotin-labeled SYK-specific substrate biotin-[…]-OH. The second reaction involves termination of the kinase reaction and the simultaneous addition of the detection reagents-europium-labeled anti-phosphotyrosine reagent (Eu-W1024-PY100, Perkin Elmer, Boston, Mass.) and Streptavidin-Allophycocyanin detection reagent (SA-APC, Prozyme, Calif.). The kinase reaction is performed in a black U-bottom 96-well microtitre plate. […] The reaction is allowed to proceed for 1 hour at room temperature. […] The detection reagents are added to the reaction mixture at the following dilutions-1:500 for Eu-W1024-PY100 and 1:250 for SA-APC. The kinase reaction is terminated by the addition of 50 μL quench buffer containing the detection reagents. The detection is allowed to proceed for 1 hr at room temperature. Detection of the phosphorlated substrate in the absence and presence of inhibitors is measured in the TR-FRET instrument, Analyst HT ([…], Sunnyvale, Calif.) and the condition for measurements are set up using CriterionHost Release 2.0 ([…], Sunnyvale, Calif.). […] IC50s were derived by non-linear regression analysis.
# [1] = Table 3, read-out: Syk IC50 code
SMILES,"IC50 (Table 4, read-out: syk IC50)",IC50 [1]
CC(=O)N1CCN(c2ccc(Nc3ncc(C(N)=O)c(N4CCCCC4CCO)n3)cc2)CC1 (stereo not shown) [2-(4-(4-acetylpiperazin-1-yl)phenylamino)-4-(2-(2-hydroxyethyl)piperidin-1-yl)pyrimidine-5-carboxamide],> 1 µM,–
"N[C@H]1CC[C@@H](Nc2nc(Nc3ccc4c(c3)CCC(=O)N4)ncc2-c2ccncc2)CC1 [Example 143, 6-(4-((1s,4s)-4-aminocyclohexylamino)-5-(pyridin-4-yl)pyrimidin-2-ylamino)-3,4-dihydroquinolin-2(1H)-one]",–,> 1 µM
"NC(=O)C1CCCN(c2nc(Nc3ccc4cn[nH]c4c3)ncc2F)C1 (stereo not shown) [Example 26, 1-(2-(1H-indazol-6-ylamino)-5-fluoropyrimidin-4-yl)piperidine-3-carboxamide]",0.1 to 1 µM,–
"NC(=O)c1cnc(-[n+]2ccn(-c3ccc(N)cc3)c2)nc1NC1CC1 [Example 6, 1-(4-aminophenyl)-3-(5-carbamoyl-4-(cyclopropylamino)pyrimidin-2-yl)-1H-imidazol-3-ium]",–,> 1 µM
"NCC1CCN(c2nc(Nc3ccc(S(N)(=O)=O)cc3)ncc2F)CC1 [Example 32, 4-(4-(4-(aminomethyl)piperidin-1-yl)-5-fluoropyrimidin-2-ylamino)benzenesulfonamide]",0.01 to 0.1 µM,–
"NC(=O)c1cnc(-[n+]2ccc(-c3ccc(N)cc3)cc2)nc1NC1CC1 [Example 5, 4-(4-aminophenyl)-1-(5-carbamoyl-4-(cyclopropylamino)pyrimidin-2-yl)pyridinium]",–,> 1 µM
"CC(=O)N1CCN(c2ccc(Nc3ncc(F)c(N4CCNCC4)n3)cc2)CC1 [Example 124, 1-(4-(4-(5-fluoro-4-(piperazin-1-yl)pyrimidin-2-ylamino)phenyl)piperazin-1-yl)ethanone]",–,> 1 µM
"NCC1CCN(c2nc(Nc3ccc(C(=O)O)cc3)ncc2F)CC1 [Example 131, 4-(4-(4-(aminomethyl)piperidin-1-yl)-5-fluoropyrimidin-2-ylamino)benzoic acid]",–,0.01 to 0.1 µM
"CC(=O)N1CCN(c2ccc(Nc3ncc(C(N)=O)c(N4CCC(CNC(N)=O)CC4)n3)cc2)CC1 [Example 130, 2-(4-(4-acetylpiperazin-1-yl)phenylamino)-4-(4-(ureidomethyl)piperidin-1-yl)pyrimidine-5-carboxamide]",–,> 1 µM
"NCC1CCN(c2nc(Nc3ccc4c(c3)CCC(=O)N4)ncc2C2CC2)CC1 [Example 139, 6-(4-(4-(aminomethyl)piperidin-1-yl)-5-cyclopropylpyrimidin-2-ylamino)-3,4-dihydroquinolin-2(1H)-one]",–,0.1 to 1 µM
"CC(=O)N1CCN(c2ccc(Nc3ncc(F)c(N4CCC(NC(N)=O)CC4)n3)cc2)CC1 [Example 129, 1-(1-(2-(4-(4-acetylpiperazin-1-yl)phenylamino)-5-fluoropyrimidin-4-yl)piperidin-4-yl)urea]",–,> 1 µM
"CN1C(=O)CCc2cc(Nc3nc(N)c4c(-c5ccc(F)cc5)c[nH]c4n3)ccc21 [Example 113, 6-(4-Amino-5-(4-fluorophenyl)-7H-pyrrolo[2,3-d]pyrimidin-2-ylamino)-1-methyl-3,4-dihydroquinolin-2(1H)-one]",–,> 1 µM
"CCOC(=O)CC(N)C1CCN(c2nc(Nc3ccc4c(c3)CCC(=O)N4)ncc2F)CC1 (stereo not shown) [Example 134, Ethyl 3-amino-3-(1-(5-fluoro-2-(2-oxo-1,2,3,4-tetrahydroquinolin-6-ylamino)pyrimidin-4-yl)piperidin-4-yl)propanoate]",–,0.1 to 1 µM
"COc1cc(Nc2ncc(F)c(N3CCC(CN)CC3)n2)cc(OC)c1OC [Example 17, 4-(4-(aminomethyl)piperidin-1-yl)-5-fluoro-N-(3,4,5-trimethoxyphenyl)pyrimidin-2-amine]",0.1 to 1 µM,–
"CC(=O)N(C)c1ccc(Nc2nc(NCCCCCN)c3c(Br)c[nH]c3n2)cc1 [Example 67, N-(4-(4-(5-aminopentylamino)-5-bromo-7H-pyrrolo[2,3-d]pyrimidin-2-ylamino)phenyl)-N-methylacetamide]",–,> 1 µM

# Now from value to molecule:
"IC50 (Table 4, read-out: syk IC50)",IC50 [1],SMILES
–,0.1 to 1 µM,"C[C@H](CO)Nc1nc(Nc2ccc(N3CCNCC3)cc2)nc2[nH]ccc12 [Example 98B, (R)-2-(2-(4-(piperazin-1-yl)phenylamino)-7H-pyrrolo[2,3-d]pyrimidin-4-ylamino)propan-1-ol]"
–,0.01 to 0.1 µM,"CC(=O)N1CCN(c2ccc(Nc3nc(NC4CC4)c4c(-c5ccncc5)c[nH]c4n3)cc2)CC1 [Example 4, 1-(4-(4-(4-(cyclopropylamino)-5-(pyridin-4-yl)-7H-pyrrolo[2,3-d]pyrimidin-2-ylamino)phenyl)piperazin-1-yl)ethanone]"
–,0.001 to 0.01 µM,"N#Cc1c[nH]c2nc(Nc3ccc(S(N)(=O)=O)cc3)nc(NC3CC3)c12 [Example 106, 4-(5-cyano-4-(cyclopropylamino)-7H-pyrrolo[2,3-d]pyrimidin-2-ylamino)benzenesulfonamide]"
–,0.01 to 0.1 µM,"CN(CC(=O)O)S(=O)(=O)c1ccc(Nc2nc(NC3CCC3)c3cc[nH]c3n2)cc1 [Example 55, 2-(4-(4-(cyclobutylamino)-7H-pyrrolo[2,3-d]pyrimidin-2-ylamino)-N-methylphenylsulfonamido)acetic acid]"
–,0.1 to 1 µM,"CC(=O)N1CCN(c2ccc(Nc3nc(NCCOCCN)c4cc[nH]c4n3)cc2)CC1 [Example 93, 1-(4-(4-(4-(2-(2-aminoethoxy)amino)-7H-pyrrolo[2,3-d]pyrimidin-2-ylamino)phenyl)piperazin-1-yl)ethanone]"
–,0.01 to 0.1 µM,"O=S(=O)(c1ccc(Nc2nc(NC3CCC3)c3cc[nH]c3n2)cc1)N1CCC(O)CC1 [Example 52, 1-(4-(4-(cyclobutylamino)-7H-pyrrolo[2,3-d]pyrimidin-2-ylamino)phenylsulfonyl)piperidin-4-ol]"
–,0.01 to 0.1 µM,"N#Cc1c[nH]c2nc(Nc3ccc(C(N)=O)cc3)nc(NC3CC3)c12 [Example 104, 4-(5-cyano-4-(cyclopropylamino)-7H-pyrrolo[2,3-d]pyrimidin-2-ylamino)benzamide]"
–,0.01 to 0.1 µM,"CC(=O)N(C)c1ccc(Nc2nc(NC3CC3)c3c(-c4ccncc4)c[nH]c3n2)cc1 [Example 47, N-(4-(4-(cyclopropylamino)-5-(pyridin-4-yl)-7H-pyrrolo[2,3-d]pyrimidin-2-ylamino)phenyl)-N-methylacetamide]"
–,0.1 to 1 µM,"CCCCOC(=O)CN(C)S(=O)(=O)c1ccc(Nc2nc(NC3CCC3)c3cc[nH]c3n2)cc1 [Example 53, butyl 2-(4-(4-(cyclobutylamino)-7H-pyrrolo[2,3-d]pyrimidin-2-ylamino)-N-methylphenylsulfonamido)acetate]"
–,0.1 to 1 µM,"CNc1nc(Nc2ccc(N(C)C(=O)C3CC3)cc2)nc2[nH]ccc12 [Example 82, N-(4-(4-(methylamino)-7H-pyrrolo[2,3-d]pyrimidin-2-ylamino)phenyl)-N-methylcyclopropanecarboxamide]"
–,0.1 to 1 µM,CS(=O)(=O)Cc1cccc(Nc2nc(NC3CCC3)c3cc[nH]c3n2)c1 [Example 77]
–,0.1 to 1 µM,"COC(=O)N(C)c1ccc(Nc2nc(NC3CCC3)c3cc[nH]c3n2)cc1 [Example 72, Methyl 4-(4-(cyclobutylamino)-7H-pyrrolo[2,3-d]pyrimidin-2-ylamino)phenyl(methyl)carbamate]"
–,0.1 to 1 µM,"CN(C)CCNC(=O)CN1C(=O)CCc2cc(Nc3nc(NC4CCC4)c4cc[nH]c4n3)ccc21 [Example 71, 2-(6-(4-(cyclobutyamino)-7H-pyrrolo[2,3-d]pyrimidine-2-ylamino)-2-oxo-3,4-dihydroquinolin-1(2H)-yl)-N-(2-(dimethylamino)ethyl)acetamide]"
0.1 to 1 µM,–,"CC(=O)N1CCN(c2ccc(Nc3nc(N4CCCC4)c4cc[nH]c4n3)cc2)CC1 [Example 22, 1-(4-(4-(4-(pyrrolidin-1-yl)-7H-pyrrolo[2,3-d]pyrimidin-2-ylamino)phenyl)piperazin-1-yl)ethanone]"
> 1 µM,–,"CC(=O)N1CCN(c2ccc(Nc3nc(N4CCCCC4)c4cc[nH]c4n3)cc2)CC1 [Example 20, 1-(4-(4-(4-(piperidin-1-yl)-7H-pyrrolo[2,3-d]pyrimidin-2-ylamino)phenyl)piperazin-1-yl)ethanone]"
–,0.1 to 1 µM,"CN(C(=O)C1CC1)c1ccc(Nc2nc(NC3CC3)c3cc[nH]c3n2)cc1 [Example 81, N-(4-(4-(cyclopropylamino)-7H-pyrrolo[2,3-d]pyrimidin-2-ylamino)phenyl)-N-methylcyclopropanecarboxamide]"
